Here are results for 13 compounds from publication PMC7792611, “The Delta-Specific Opioid Glycopeptide BBI-11008: CNS Penetration and Behavioral Analysis in a Preclinical Model of Levodopa-Induced Dyskinesia” (International Journal of Molecular Sciences, 2020).

The test system of data set [1] is L-DOPA-induced dyskinesia (LID) models. The following applies: cited from earlier work.
Another data set deals with tail-withdrawal assay. The following applies: mice, intravenous administration; ref Bilsky and Polt, personal communication; cited from earlier work.
The next data set deals with T1, human KOR (Homo sapiens, UniProt P41145).
T1 construct: expressed in transfected cells
Description: Opioid receptor binding, [3H]U69593 binding to CHO cell membranes. Particulars: 1 nM [3H]U69593; cells print % values. The procedure: Opioid Receptor Binding: Opioid receptor binding assays were performed as previously described. Membranes from CHO cells stably expressing either the human DOR, MOR, or KOR were used in the binding experiments. […] [^3H]U69593 at a concentration of 1 nM was used to measure binding to the KOR. […] BBI-11008 was chosen for further study.

For a further data set, the target named is T2, human DOR (Homo sapiens, UniProt P41143).
T2 construct: expressed in transfected cells
Description: Opioid receptor binding, inhibition of [3H]naltrindole binding to CHO cell membranes. Particulars: for % Inhibition at DOR: 0.2 nM [3H]naltrindole.

For the next data set, the target named is T3, human MOR (Homo sapiens, UniProt P35372).
T3 construct: expressed in transfected cells
The experiment in a line: Opioid receptor binding, inhibition of [3H]DAMGO binding to CHO cell membranes. The following applies: for % Inhibition at MOR: 0.25 nM [3H]DAMGO.

The subject of data set [2] is L-DOPA-induced abnormal involuntary movements in 6-OHDA-lesioned rats. The experiment in a line: L-DOPA-induced dyskinesia model in unilateral 6-OHDA-lesioned rats, AIMs scoring. It is filed as in vivo, rat. The following applies: MK-801 0.3 mg/kg i.p., 25 min prior to L-DOPA. As to the method: Male Sprague-Dawley rats (250 g; Harlan, Indianapolis, IN, USA), were housed in a temperature and humidity-controlled room with 12 h light/dark cycles with food and water available ad libitum. All animals were treated as approved by the Institutional Animal Care and Use Committee at the University of Arizona (Protocol number: 10-204; amendment approval date: 20 August 2012) and in accordance with the NIH Guidelines for the Care and Use of Laboratory Animals. The number of animals used, and their suffering were minimized.
All surgical procedures were performed as published in our prior work unless otherwise stated. […]
Rats showing ipsiversive rotations were selected and treated daily (i.p.) for 3 weeks with a combination of L-DOPA (7 mg/kg) and benserazide (14 mg/kg, MilliporeSigma). […] Baseline L-DOPA-induced LAO and locomotor AIMs (mean ± SEM) were determined over 3 testing sessions, before testing of the compounds was begun. […]
L-DOPA-induced AIMs were scored by an experimentally blinded investigator according to [57]. […] In order to quantify the severity of the AIMs, rats were observed individually in their standard cages every 20th min between 20 and 180 min after an injection of L-DOPA. […]

Data set [3] is described as follows: In vivo microdialysis in the dorsolateral striatum with LC-MS. The following applies: 10 mg/kg i.p., rat. As to the method: Adult male Sprague–Dawley rats (Harlan, Indianapolis, IN, USA) weighing between 250 and 350 g were used for all experiments (n = 6). Rats were housed in a temperature and humidity-controlled room with 12 h light/dark cycles with food and water available ad libitum. All animals were treated as approved by the University of Michigan Unit for Laboratory Animal Medicine (Protocol: 08516; approval date: 4 April 2011) and in accordance with the National Institute of Health (NIH) Guidelines for the Care and Use of Laboratory Animals. The number of animals used, and their suffering were minimized.
We performed in vivo microdialysis in the rat DLS and applied LC-MS analytical techniques to quantify brain concentrations of the deltorphin analogue BBI-11008, following systemic treatment, and of endogenous leu-enkephalin levels both before and after treatment. These experiments were performed in awake, freely moving rats, implanted with microdialysis probes in the DLS 24 h prior to the experiments. The animals were fully recovered, their wounds healed, and the probes were fixed in place with dental cement. The details of the microdialysis procedure to detect glycopeptides in the rat striatum has been described in detail in [27], with the following minor modifications: the concentric microdialysis probes were slightly larger at 3 mm, and the microdialysis probes were flushed at a lower flow rate of 0.7 µL/min.

Values joined by “and” are separate entries in the source; they are usually repeats but may differ in a detail not shown here. Equal values may be shown once. “Also recorded” adds a separate entry of the source. Read-outs that look alike come from different tables or passages of the source. Non-standard residues stand in square brackets, D forms with d. Residues, ends and D or L forms follow the SMILES beside them. *: point of attachment. βGlc = OC[C@H]1O[C@@H](*)[C@H](O)[C@@H](O)[C@@H]1O; Nle = CCCC[C@H](N)C(=O)O

T3 sequence (P35372 whole entry): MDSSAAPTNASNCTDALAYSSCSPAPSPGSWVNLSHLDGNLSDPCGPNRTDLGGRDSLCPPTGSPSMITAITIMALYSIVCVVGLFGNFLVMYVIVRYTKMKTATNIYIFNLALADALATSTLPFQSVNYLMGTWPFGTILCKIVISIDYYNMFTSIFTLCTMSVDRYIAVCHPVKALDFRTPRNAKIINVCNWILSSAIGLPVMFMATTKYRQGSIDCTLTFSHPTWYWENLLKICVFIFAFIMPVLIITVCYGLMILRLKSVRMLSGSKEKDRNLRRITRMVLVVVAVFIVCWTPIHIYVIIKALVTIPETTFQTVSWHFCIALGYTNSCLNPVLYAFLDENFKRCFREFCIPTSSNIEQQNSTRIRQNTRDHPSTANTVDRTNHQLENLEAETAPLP
T2 sequence (P41143 whole entry): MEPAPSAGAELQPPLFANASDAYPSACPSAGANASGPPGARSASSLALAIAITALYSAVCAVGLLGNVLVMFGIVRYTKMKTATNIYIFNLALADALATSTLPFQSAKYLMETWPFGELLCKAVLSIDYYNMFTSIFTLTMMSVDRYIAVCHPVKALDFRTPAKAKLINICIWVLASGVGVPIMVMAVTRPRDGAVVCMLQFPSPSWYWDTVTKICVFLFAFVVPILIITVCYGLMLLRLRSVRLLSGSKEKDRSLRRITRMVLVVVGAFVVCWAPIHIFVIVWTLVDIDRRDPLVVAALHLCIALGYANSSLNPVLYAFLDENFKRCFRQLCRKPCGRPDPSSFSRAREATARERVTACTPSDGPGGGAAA
T1 sequence (P41145 whole entry): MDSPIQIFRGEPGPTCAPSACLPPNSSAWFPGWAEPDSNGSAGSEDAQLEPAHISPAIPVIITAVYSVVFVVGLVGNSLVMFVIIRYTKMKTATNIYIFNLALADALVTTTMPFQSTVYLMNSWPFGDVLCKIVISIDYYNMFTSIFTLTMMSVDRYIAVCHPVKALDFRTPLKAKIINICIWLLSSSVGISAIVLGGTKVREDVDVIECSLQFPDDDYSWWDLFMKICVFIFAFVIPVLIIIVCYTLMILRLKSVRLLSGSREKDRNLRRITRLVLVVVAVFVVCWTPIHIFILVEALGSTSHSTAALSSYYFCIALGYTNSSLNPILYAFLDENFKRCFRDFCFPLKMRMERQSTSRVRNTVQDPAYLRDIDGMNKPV

In the case of `Oc1ccc2c3c1O[C@H]1[C@@H](O)CC[C@@]4(O)[C@@H](C2)N(CC2CCC2)CC[C@]314` [nalbuphine], the “effect on LID” value in data set [1] (dyskinetic non-human LID primates) is reported as “reduce LID”.
As for `CNC1(c2ccccc2Cl)CCCCC1=O` (stereo not drawn) [ketamine], the “effect on LID and Parkinsonism” value in data set [1] (sub-anesthetic treatment, rodent models) was “anti-dyskinetic and anti-Parkinsonian”.
Turning to Lactomorphin [MMP-2200], the “effect on MK-801-induced pro-Parkinsonian activity” value in data set [1] (co-administration with MK-801, rodent LID model) is listed as “attenuated the pro-Parkinsonian activity of MK-801”.
Turning to YaFEVVG-CONH2 [deltorphin], in the data set on tail-withdrawal assay, the “antinociceptive effect in the tail-withdrawal assay” value is on record as “lacks this activity”.
As to `CCN(CC)C(=O)c1ccc([C@H](c2cccc(O)c2)N2C[C@@H](C)N(Cc3cccc(F)c3)C[C@@H]2C)cc1` [DPI-289], the “effect on LID” value in data set [1] (rodent and non-human primate LID models) is recorded as “anti-dyskinetic”.
Regarding `CCCC[C@H](NC(=O)[C@H](CCC(=O)O)NC(=O)[C@H](Cc1ccccc1)NC(=O)[C@@H](C)NC(=O)[C@@H](N)Cc1ccc(O)cc1)C(=O)N[C@@H](CCCC)C(=O)N[C@H](C(N)=O)[C@@H](C)O` [BBI-11009, H2N-YaFE-Nle-Nle-T] (H-Y[dA]FE[Nle][Nle]T-NH2), on human KOR, the % Inhibition (in general, the percentage by which the read-out fell short of the control) at KOR turned out to be 3.7%. For the same compound, the figures for the Ki on human DOR and on human MOR were 11 nM and 510 nM, respectively.
In the case of H2N-YmFHLM-S(β-D-Glc) [BBI-11001], the “% Inhibition at DOR” value is given as 72% on human DOR (peptide 100 nM) and 84% on human DOR (peptide 1 µM). Further, the “% Inhibition at MOR” value on human MOR (peptide 100 nM) is 63%; on human MOR (peptide 1 µM), 89%.
As for `C[C@]12N[C@H](Cc3ccccc31)c1ccccc12` [MK-801, Dizocilpine], in data set [2], the “effect on L-DOPA-induced LAO AIMs” value is recorded as “reduced levodopa-induced LAO AIMs; also recorded: does reduce LAO-AIMs; also recorded: efficiently blocked LAO AIMs” and the “ipsiversive pro-Parkinsonian locomotor activity” value was “worsened PD symptoms; also recorded: induces ipsiversive pro-Parkinsonian locomotor activity; also recorded: caused ipsiversive turns”.
With `CCCC[C@H](NC(=O)[C@H](CCC(=O)O)NC(=O)[C@H](Cc1ccccc1)NC(=O)[C@@H](C)NC(=O)[C@@H](N)Cc1ccc(O)cc1)C(=O)N[C@@H](CCCC)C(=O)N[C@H](C(N)=O)[C@@H](C)O[C@@H]1O[C@H](CO)[C@@H](O)[C@H](O)[C@H]1O` [BBI-11008, H2N-YaFE-Nle-Nle-T-(β-D-Glc)] (H-Y[dA]FE[Nle][Nle]T(βGlc)-NH2), the “peak BBI-11008 level relative to baseline endogenous leu-enkephalin” value in data set [3] was found to be 10 fold. Moreover, in data set [3] (10 min post-injection), the “peak BBI-11008 concentration in dorsolateral striatum dialysate” value is 150 pM and > 150 pM. Moreover, in data set [3] (male, Sprague-Dawley, in vivo, ip, 10 mg/kg, 60 min, read-out: striatal BBI-11008 concentration at 60 min post-injection (mean)), the level at time molar at 1 h was roughly 0.037 nM.
Turning to CTAP, the “effect on LID” value in data set [1] (highly-selective MOR antagonists) is recorded as “did not reduce LID”.
On to H2N-YaFHLAT-(β-D-Glc) [BBI-11004], for which the entries for the “% Inhibition at DOR” value at human DOR (peptide 100 nM) and on human DOR (peptide 1 µM) were 61% and 76%, respectively. The “% Inhibition at MOR” value on human MOR (peptide 100 nM) is given as 88%; on human MOR (peptide 1 µM), 98%.
On the same counts, the results for H2N-YmFHLMT-(β-D-Glc) [BBI-11003] are 75%, 83%, 57% and 89%.
With H2N-YaFHLA-S(β-D-Glc) [BBI-11002], the “% Inhibition at DOR” value at human DOR (peptide 100 nM) came out at 55%; on human DOR (peptide 1 µM), 77%. Besides, the “% Inhibition at MOR” value at human MOR (peptide 100 nM) came to 82%; at human MOR (peptide 1 µM), 97%.
